From patent US9795672B2, “Treatment with anti-VEGF antibodies” (Genentech, Inc., priority 2003, dated 2017)
Marks after values point to notes of the source that are not given here.

Legend:
[1] = test system: metastatic colorectal cancer; assay: Phase II randomized trial, bevacizumab added to bolus 5-FU/LV: safety; assay type: in vivo
Procedure: Safety was assessed from reports of adverse events, laboratory test results, and vital sign measurements. Adverse events and abnormal laboratory results were categorized using the National Cancer Institute Common Toxicity Criteria (NCI-CTC), Version 2.
A two-tailed, log-rank test at the 0.05 level of significance with 80% power and two interim analyses were assumed in the calculations. Interim analyses were conducted by an unblinded, independent Data Monitoring Committee (DMC). A safety interim analysis was conducted after 44 deaths and a second safety and efficacy interim analysis was conducted after 89 deaths. The interim efficacy analysis was governed by a formal group sequential stopping rule based on an O'Brien-Fleming spending function. Kaplan-Meier methodology was applied to estimate the median survival, progression free survival, and duration of response time for each treatment group. […] A two-sided stratified log rank test was used to compare the two groups. Stratified analyses included baseline ECOG performance status, site of primary disease, and the number of metastatic sites. Objective response rates were compared by the Chi-squared test. As exploratory analyses, the Cox proportional hazards model was used to estimate the effect of risk factors on modifications of treatment effect for duration of survival and progression-free survival. Efficacy analyses were performed on the intent-to-treat population, defined as all randomized patients. Safety analyses included all patients who received at least one dose of study drug.

CRC = settings: retrospective subset analysis; cited from earlier work
[2] = test system: metastatic colorectal cancer; assay: Phase II randomized trial, bevacizumab added to bolus 5-FU/LV, first-line, non-optimal candidates for irinotecan: efficacy and quality of life; assay type: in vivo, human
Description: Patients with histologically confirmed, previously untreated, measurable metastatic colorectal cancer were eligible if, in the judgment of the investigator, they were not optimal candidates for first-line irinotecan-containing therapy and had at least one of the following characteristics: age above 65 years, ECOG PS of 1 or 2, serum albumin equal or less than 3.5 g/dL, or prior radiotherapy to abdomen or pelvis. […] All patients provided written informed consent for their participation.
A dynamic randomization algorithm was utilized to achieve balance overall and within each of the following categories: study center, baseline ECOG performance status (0 vs. ≧1), site of primary disease (colon vs. rectum), and number of metastatic sites (1 vs. >1). The 5-FU/LV treatment, comprising LV 500 mg/m^2 over 2 hours and 5-FU 500 mg/m^2 as a bolus midway through the LV infusion (Roswell Park regimen; Petrelli et al. (1989) J. Clin. Oncol. 7:1419-1426), was administered weekly for the first 6 weeks of each 8-week cycle. Chemotherapy was continued until study completion (96 weeks) or disease progression. […] At the time of disease progression, patients were unblinded to their treatment assignment and could receive any second-line treatment at the discretion of the investigator. […] After completing the study, patients were followed for any subsequent treatment and survival every 4 months until death, loss to follow-up, or termination of the study.
Patients underwent an assessment of tumor status at baseline and at completion of every 8-week cycle using appropriate radiographic techniques, typically spiral CT scanning. Tumor response, or progression, was determined by both the investigator and an independent radiology facility (IRF) utilizing the Response Evaluation Criteria in Solid Tumors. Therasse et al. (2000). The IRF assessment was performed without knowledge of the treatment assignment or investigator assessment. In addition, patients completed the Functional Assessment of Cancer Therapy—Colorectal (FACT-C), Version 4, a validated instrument for assessing quality of life (QOL) in colorectal cancer patients, at baseline and prior to each treatment cycle until disease progression. Ward et al. (1999) Qual. Life Res. 8:181-195.
The primary outcome measure was duration of overall survival. Secondary outcome measures included progression-free survival, objective response rate (complete and partial), response duration, and change in the FACT-C QOL score. Survival duration was defined as the time from randomization to death. For patients alive at the time of analysis, duration of survival was censored at the date of last contact. Progression-free survival was defined as the time from randomization to the earlier of disease progression or death on study, defined as death from any cause within 30 days of the last dose of study drug or chemotherapy. For patients alive without disease progression at the time of analysis, progression-free survival was censored at their last tumor assessment, or day 1 (the first day of study treatment) if no postbaseline assessment was performed. In the analysis of objective response, patients without tumor assessments were categorized as nonresponders. Disease progression and response analyses were based on the IRF assessments. Change in quality of life was analyzed as time to deterioration in QOL (TDQ), defined as the length of time from randomization to a the earliest of a ≧3-point decrease from baseline in colon-cancer specific FACT-C subscale score (CCS), disease progression, or death on study. TDQ was also determined for the TOI-C (sum of CCS, physical and functional well-being) and total FACT-C for changes from baseline of 7 and 9 points, respectively.
A two-tailed, log-rank test at the 0.05 level of significance with 80% power and two interim analyses were assumed in the calculations. Interim analyses were conducted by an unblinded, independent Data Monitoring Committee (DMC).

[3] = test system: metastatic colorectal cancer; assay: Phase III randomized trial, bevacizumab added to bolus IFL, first-line: efficacy; assay type: in vivo, human; settings: for Overall response rate: complete and partial responses, RECIST; for Median duration of response: in vivo; for Progression-free survival: median; for Median survival: overall survival, primary end point, bevacizumab 5 mg/kg every 2 wk or placebo with IFL
Description: The trial enrolled over 900 patients with histologically confirmed, previously untreated, bi-dimensionally measurable metastatic colorectal cancer.
Eligible patients had histologically confirmed metastatic colorectal carcinoma, with bidimensionally measurable disease. Other inclusion criteria included an age of at least 18 years, an Eastern Cooperative Oncology Group (ECOG) performance status of 0 or 1 (Oken et al. (1982) Am. J. Clin. Oncol. 5:649-55), a life expectancy of more than three months, and written informed consent. Adequate hematologic, hepatic, and renal function (including urinary excretion of no more than 500 mg of protein per day) was also required.
Exclusion criteria included prior chemotherapy or biologic therapy for metastatic disease (adjuvant or radiosensitizing use of fluoropyrimidines with or without leucovorin or levamisole more than 12 months before study entry was permitted), receipt of radiotherapy within 14 days before the initiation of study treatment, major surgery within 28 days before the initiation of study treatment, clinically significant cardiovascular disease, clinically detectable ascites, pregnancy or lactation, regular use of aspirin (more than 325 mg per day) or other nonsteroidal […] agents, preexisting bleeding diatheses or coagulopathy or the need for full-dose anticoagulation, and known central nervous system metastases.
Eligible patients were assigned to treatment with the use of a dynamic randomization algorithm that was designed to achieve overall balance between groups; randomization was stratified according to study center, baseline ECOG performance status (0 vs. 1), site of primary disease (colon vs. rectum), and number of metastatic sites (one vs. more than one).
Tumor responses and progression were determined with the use of the Response Evaluation Criteria in Solid Tumors. Therasse et al. (2000) J. Natl. Cancer Inst. 92:205-16. […] No crossovers were allowed in the group given IFL plus placebo.
Bevacizumab (or placebo) was administered concomitantly with chemotherapy. […] Standard intracycle and intercycle dose modifications of irinotecan and fluorouracil (according to the package insert)’ were permitted in patients with treatment-related adverse events. The doses of leucovorin and bevacizumab were not altered.
After the baseline evaluation, tumor status was assessed every 6 weeks for the first 24 weeks of the study and then every 12 weeks for the remainder of therapy. All complete and partial responses required confirmation at least four weeks after they were first noted.
The primary outcome measure was the duration of overall survival; survival was measured without regard to subsequent treatments. There was no crossover between groups, however. Survival analysis techniques such as the Kaplan-Meier method, log-rank test, and Cox proportional hazards model were used. Secondary outcome measures were progression-free survival, objective response rates (complete and partial responses), the duration of responses, and the quality of life.
For patients who were alive at the time of analysis, data on survival were censored at the time of the last contact. […] For patients without disease progression at the time of the final analysis, data on progression-free survival were censored at the last assessment of tumor status or on day 0 if no further assessment was performed after baseline. Patients without adequate follow-up data were categorized as having no response.
All calculations were performed with the log-rank test and involved two-sided P values, with an alpha value of 0.05, a statistical power of 80 percent, and one interim analysis of efficacy.
(§1) Efficacy analyses were performed according to the intention-to-treat principle. Safety analyses included all patients who received at least one dose of study medication.

[4] = test system: metastatic colorectal cancer; settings: patients who progressed following 5-FU therapy; cited from earlier work
[5] = test system: metastatic colorectal cancer; assay: Phase III randomized trial, bevacizumab added to bolus IFL: safety (adverse events, NCI Common Toxicity Criteria v2); assay type: in vivo
Procedure: Safety was assessed on the basis of reports of adverse events, laboratory-test results, and vital sign measurements. Adverse events were categorized according to the Common Toxicity Criteria of the National Cancer Institute, version 2, in which a grade of 1 indicates mild adverse events, a grade of 2 moderate adverse events, a grade of 3 […] adverse events, and a grade of 4 life-threatening adverse events.
as §1

[6] = addition of bevacizumab compared with 5-FU/LV alone

Compound: 5-FU/LV/Bevacizumab: 5-fluorouracil and leucovorin (Roswell Park regimen) given with bevacizumab 5 mg/kg every 2 weeks
- 60-day all-cause mortality ([1]; in vivo): 5.0%
- Arterial thrombotic events, number of patients ([1]; in vivo): 10 patients
- Bowel perforation event, number of patients ([1]; in vivo): Two
- Incidence of arterial thrombotic events ([1]; in vivo): 10%
- Proteinuria of any grade ([1]; in vivo): 38%
- Total grade 3 and 4 toxicities ([1]; safety population): 87%
- Median survival, subset aged ≧65 years (CRC): 17.7 months
- Median survival, subset with baseline PS 1 or 2 (CRC): 15.2 months
- Median survival, subset with serum albumin<3.5 (CRC): 14.1 months
- Median time to deterioration in QOL (TDQ), CCS score ([2]; FACT-C colon-cancer specific subscale): 3.1 months
- Overall response rate ([2]; IRF assessment): 26.0%
- Duration of response ([2]; median): 9.2 months
- Progression-free survival ([2]; median, IRF assessment): 9.2 months
- Median survival ([2]; overall survival, primary endpoint, intent-to-treat, bevacizumab 5 mg/kg every 2 weeks or placebo with 5-FU/LV (Roswell Park)): 16.6 months
- Complete response ([2]; part of overall response rate): 0%
- Partial response ([2]; part of overall response rate): 26.0%
- Median TDQ, TOI-C ([2]; secondary TDQ measure): 3.2 months
- Median TDQ, total FACT-C ([2]; secondary TDQ measure): 3.6 months

Compound: bevacizumab: recombinant humanized anti-VEGF monoclonal antibody generated according to Presta et al. (1997)
- Effect on quality of life ([2]; FACT-C): no detrimental effect
- Prolongation of median survival [2, 6]: 3.7 months
- Prolongation of progression-free survival [2, 6]: 3.7 months
- Prolongation of response duration [2, 6]: 2.4 months
- Increase in the median duration of survival attributable to bevacizumab ([3]; IFL plus bevacizumab vs IFL plus placebo): 4.7 months
- Overall response rate [3]: 44.8%
- Median duration of response [3]: 10.4 mo
- Progression-free survival ([3]; intention-to-treat): 10.6 mo
- Median survival ([3]; intention-to-treat): 20.3 mo

Compound: CCc1c2c(nc3ccc(OC(=O)N4CCC(N5CCCCC5)CC4)cc13)-c1cc3c(c(=O)n1C2)COC(=O)[C@]3(O)CC [irinotecan]
- Prolongation of survival vs best supportive care [4]: 2.8 month
- Prolongation of survival vs infusional 5-FU [4]: 2.2 month

Compound: IFL plus Bevacizumab: regimen of irinotecan, fluorouracil and leucovorin (IFL) given with bevacizumab 5 mg/kg every 2 wk
- Absolute improvement in the response rate ([3]; IFL plus bevacizumab vs IFL alone): 10%
- Reduction in the risk of death ([3]; bevacizumab group vs IFL plus placebo): 34%
- Overall response rate [3]: 44.8%
- Median duration of response [3]: 10.4 mo
- One-year survival rate ([3]; intention-to-treat): 74.3%
- Progression-free survival ([3]; intention-to-treat): 10.6 mo
- Median survival ([3]; intention-to-treat): 20.3 mo
- Complete response ([3]; part of overall response rate): 3.7%
- Partial response ([3]; part of overall response rate): 41.0%
- Median duration of overall survival, subgroup with second-line oxaliplatin ([3]; patients who received second-line treatment with oxaliplatin): 25.1 months
- Adverse event leading to hospitalization ([5]; in vivo): 44.9%
- Any grade 3 or 4 adverse event ([5]; in vivo): 84.9** percent
- Any thrombotic event ([5]; in vivo): 19.4%
- Cases of grade 4 bleeding ([5]; in vivo): three
- Deep thrombophletitis ([5]; in vivo): 8.9%
- Gastrointestinal perforation ([5]; in vivo): 1.5%
- Gastrointestinal perforation, number of patients ([5]; in vivo): six
- Grade 3 or 4 bleeding ([5]; in vivo): 3.1%
- Grade 3 or 4 leukopenia ([5]; in vivo): 37.0%
- Hypertension, Any ([5]; in vivo): 22.4** percent
- Incidence of arterial thrombotic events ([5]; in vivo): 3.3%
- Proteinuria, Any ([5]; in vivo): 26.5%
- Proteinuria, Grade 2 ([5]; in vivo): 3.1%
- Proteinuria, Grade 3 ([5]; in vivo): 0.8%
- Pulmonary embolus ([5]; in vivo): 3.6%
- Adverse event leading to death ([5]; incidence): 2.6%
- Death within 60 days ([5]; incidence): 3.0%
